pIC50: −log10 of the molar value.
Assays:
Type in all cases: biochemical
Lck = molecular target: T1, Lck (Homo sapiens, UniProt P06239); test: Kinase inhibition assay (33P transfer), Lck; conditions: read-out: Lck-1
T1 construct: Kinases are expressed as either kinase domains or full length constructs; made in house
How it was run: (§1)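 Liquid scintillation counting of 33P on plate-bound synthetic substrates gives kinase activity. Plates are washed in 0.5% phosphoric acid first; kinases are tagged recombinant proteins from E. coli or baculovirus-infected High Five cells.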

Zap-70 = molecular target: T2, Zap-70 (Homo sapiens, UniProt P43403); test: Kinase inhibition assay (33P transfer), Zap-70; conditions: read-out: Zap-1
T2 construct: Kinases are expressed as either kinase domains or full length constructs; made in house
T2 sequence (P43403 1-619): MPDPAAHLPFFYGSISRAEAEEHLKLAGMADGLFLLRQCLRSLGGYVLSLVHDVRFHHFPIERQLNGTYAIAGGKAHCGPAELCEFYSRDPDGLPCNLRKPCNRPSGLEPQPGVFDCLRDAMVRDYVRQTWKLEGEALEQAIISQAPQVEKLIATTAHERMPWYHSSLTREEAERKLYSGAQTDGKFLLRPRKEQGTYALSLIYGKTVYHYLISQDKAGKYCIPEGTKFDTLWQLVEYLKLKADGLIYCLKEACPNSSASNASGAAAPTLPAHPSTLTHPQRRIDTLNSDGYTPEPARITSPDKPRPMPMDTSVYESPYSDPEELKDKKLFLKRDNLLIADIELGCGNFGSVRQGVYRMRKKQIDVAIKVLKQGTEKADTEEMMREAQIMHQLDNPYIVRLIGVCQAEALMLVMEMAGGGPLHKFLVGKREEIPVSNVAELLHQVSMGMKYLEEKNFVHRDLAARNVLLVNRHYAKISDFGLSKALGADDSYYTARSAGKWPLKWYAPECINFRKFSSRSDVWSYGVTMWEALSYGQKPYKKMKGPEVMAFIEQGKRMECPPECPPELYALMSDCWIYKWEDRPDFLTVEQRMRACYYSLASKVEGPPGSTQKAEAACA
How it was run: as §1

Itk = molecular target: T3, Itk (Homo sapiens, UniProt Q08881); test: Kinase inhibition assay (33P transfer), Itk; conditions: read-out: Itk-1
T3 construct: Kinases are expressed as either kinase domains or full length constructs; made in house
T3 sequence (Q08881 1-620): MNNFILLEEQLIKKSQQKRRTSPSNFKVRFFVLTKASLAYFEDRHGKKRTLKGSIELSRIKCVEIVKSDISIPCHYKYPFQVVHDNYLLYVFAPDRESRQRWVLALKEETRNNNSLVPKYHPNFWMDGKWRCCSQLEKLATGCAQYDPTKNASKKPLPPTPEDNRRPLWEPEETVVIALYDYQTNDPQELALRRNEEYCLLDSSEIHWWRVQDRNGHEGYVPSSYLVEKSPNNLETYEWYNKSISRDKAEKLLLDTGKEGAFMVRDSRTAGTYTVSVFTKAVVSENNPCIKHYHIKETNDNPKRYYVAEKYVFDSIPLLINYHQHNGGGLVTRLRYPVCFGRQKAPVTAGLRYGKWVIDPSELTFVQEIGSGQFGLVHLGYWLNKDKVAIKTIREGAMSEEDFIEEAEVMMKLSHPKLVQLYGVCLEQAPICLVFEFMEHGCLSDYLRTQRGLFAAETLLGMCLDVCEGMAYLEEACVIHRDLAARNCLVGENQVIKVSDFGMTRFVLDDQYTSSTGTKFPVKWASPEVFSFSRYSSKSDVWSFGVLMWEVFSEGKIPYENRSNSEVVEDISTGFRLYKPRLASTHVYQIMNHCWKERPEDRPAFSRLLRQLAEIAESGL
How it was run: (§2)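 Using immobilised substrate copolymers (poly(Glu,Tyr) 4:1; poly(Arg,Ser) 3:1) and [33P]ATP, purified fusion kinases were allowed to react; plates were then rinsed in 0.5% phosphoric acid and counted in a scintillation detector. Half-maximal inhibition of label transfer defines IC50.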

EGFR = molecular target: T4, EGFR (Homo sapiens, UniProt P00533); test: Kinase inhibition assay (33P transfer), EGFR; conditions: Table 2, kinase inhibition class; read-out: EGFR-1
T4 construct: Kinases are expressed as either kinase domains or full length constructs; made in house
T4 sequence (P00533 25-1210, species assumed): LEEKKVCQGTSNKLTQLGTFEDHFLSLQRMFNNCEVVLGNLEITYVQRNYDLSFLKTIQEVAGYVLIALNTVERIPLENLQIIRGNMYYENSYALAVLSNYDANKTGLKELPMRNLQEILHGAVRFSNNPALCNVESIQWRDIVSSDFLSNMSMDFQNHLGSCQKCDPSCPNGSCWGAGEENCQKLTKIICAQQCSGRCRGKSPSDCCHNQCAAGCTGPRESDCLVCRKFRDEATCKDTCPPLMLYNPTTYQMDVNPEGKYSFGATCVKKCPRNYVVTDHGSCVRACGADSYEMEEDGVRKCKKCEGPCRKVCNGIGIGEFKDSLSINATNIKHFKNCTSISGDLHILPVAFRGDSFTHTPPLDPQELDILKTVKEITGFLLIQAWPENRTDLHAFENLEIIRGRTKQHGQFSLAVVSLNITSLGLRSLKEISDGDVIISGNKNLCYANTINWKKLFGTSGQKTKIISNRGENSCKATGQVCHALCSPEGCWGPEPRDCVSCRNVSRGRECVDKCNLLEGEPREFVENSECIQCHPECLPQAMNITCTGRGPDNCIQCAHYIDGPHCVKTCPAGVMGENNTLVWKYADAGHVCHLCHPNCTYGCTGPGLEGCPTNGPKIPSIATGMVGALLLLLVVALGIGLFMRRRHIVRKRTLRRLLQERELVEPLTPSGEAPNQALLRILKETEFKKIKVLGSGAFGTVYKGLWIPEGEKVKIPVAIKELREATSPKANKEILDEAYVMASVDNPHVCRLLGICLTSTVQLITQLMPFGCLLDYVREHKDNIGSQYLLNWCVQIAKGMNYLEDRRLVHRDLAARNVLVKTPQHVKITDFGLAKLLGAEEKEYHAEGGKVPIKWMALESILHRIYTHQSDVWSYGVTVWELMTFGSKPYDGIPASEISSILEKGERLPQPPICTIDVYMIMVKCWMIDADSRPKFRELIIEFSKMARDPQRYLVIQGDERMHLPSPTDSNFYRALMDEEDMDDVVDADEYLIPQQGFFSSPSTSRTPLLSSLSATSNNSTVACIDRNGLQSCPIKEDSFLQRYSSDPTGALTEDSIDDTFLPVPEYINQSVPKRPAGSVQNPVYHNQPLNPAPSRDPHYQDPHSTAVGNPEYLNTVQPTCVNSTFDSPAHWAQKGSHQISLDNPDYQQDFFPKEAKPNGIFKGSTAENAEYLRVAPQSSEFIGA
How it was run: as §2

ErbB2 = molecular target: T5, ErbB2 (Homo sapiens, UniProt P04626); test: Kinase inhibition assay (33P transfer), ErbB2; conditions: read-out: ErbB2-2
T5 construct: Kinases are expressed as either kinase domains or full length constructs; made in house
T5 sequence (P04626 23-1255, species assumed): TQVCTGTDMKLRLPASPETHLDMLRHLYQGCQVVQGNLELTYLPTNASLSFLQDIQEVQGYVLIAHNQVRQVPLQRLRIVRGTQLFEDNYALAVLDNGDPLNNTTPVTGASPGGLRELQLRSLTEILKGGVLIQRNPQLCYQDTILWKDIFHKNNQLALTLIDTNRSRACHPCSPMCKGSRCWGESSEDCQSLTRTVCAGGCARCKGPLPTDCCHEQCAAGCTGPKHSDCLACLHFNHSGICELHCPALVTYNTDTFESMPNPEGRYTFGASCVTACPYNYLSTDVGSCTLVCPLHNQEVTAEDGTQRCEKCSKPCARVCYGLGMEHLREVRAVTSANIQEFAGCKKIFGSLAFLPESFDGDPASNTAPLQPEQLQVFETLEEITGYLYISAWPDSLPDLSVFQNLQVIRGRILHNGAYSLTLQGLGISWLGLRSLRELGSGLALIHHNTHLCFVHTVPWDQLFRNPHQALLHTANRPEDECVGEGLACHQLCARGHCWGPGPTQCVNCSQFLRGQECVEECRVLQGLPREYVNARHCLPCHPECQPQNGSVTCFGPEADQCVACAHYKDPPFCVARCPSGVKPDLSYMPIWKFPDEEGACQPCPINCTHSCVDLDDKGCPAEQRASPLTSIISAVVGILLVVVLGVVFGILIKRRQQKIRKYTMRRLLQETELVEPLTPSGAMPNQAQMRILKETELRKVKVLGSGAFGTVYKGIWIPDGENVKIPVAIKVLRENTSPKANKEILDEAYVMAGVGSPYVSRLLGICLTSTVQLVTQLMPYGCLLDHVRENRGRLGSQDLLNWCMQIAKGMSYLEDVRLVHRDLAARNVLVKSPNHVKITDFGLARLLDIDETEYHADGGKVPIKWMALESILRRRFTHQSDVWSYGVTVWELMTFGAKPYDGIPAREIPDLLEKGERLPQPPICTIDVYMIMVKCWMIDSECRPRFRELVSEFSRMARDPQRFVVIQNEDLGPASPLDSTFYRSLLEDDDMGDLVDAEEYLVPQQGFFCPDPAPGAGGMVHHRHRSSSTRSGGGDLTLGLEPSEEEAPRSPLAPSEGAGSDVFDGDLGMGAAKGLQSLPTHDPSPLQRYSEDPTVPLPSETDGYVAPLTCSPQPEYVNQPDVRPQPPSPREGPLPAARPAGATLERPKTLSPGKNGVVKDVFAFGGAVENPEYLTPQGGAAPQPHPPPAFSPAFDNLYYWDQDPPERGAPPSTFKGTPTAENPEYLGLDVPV
How it was run: as §2

Kdr = molecular target: T6, Kdr (Homo sapiens, UniProt P35968); test: Kinase inhibition assay (33P transfer), Kdr; conditions: read-out: KDR-1
T6 construct: Kinases are expressed as either kinase domains or full length constructs; made in house
T6 sequence (P35968 20-1356, species assumed): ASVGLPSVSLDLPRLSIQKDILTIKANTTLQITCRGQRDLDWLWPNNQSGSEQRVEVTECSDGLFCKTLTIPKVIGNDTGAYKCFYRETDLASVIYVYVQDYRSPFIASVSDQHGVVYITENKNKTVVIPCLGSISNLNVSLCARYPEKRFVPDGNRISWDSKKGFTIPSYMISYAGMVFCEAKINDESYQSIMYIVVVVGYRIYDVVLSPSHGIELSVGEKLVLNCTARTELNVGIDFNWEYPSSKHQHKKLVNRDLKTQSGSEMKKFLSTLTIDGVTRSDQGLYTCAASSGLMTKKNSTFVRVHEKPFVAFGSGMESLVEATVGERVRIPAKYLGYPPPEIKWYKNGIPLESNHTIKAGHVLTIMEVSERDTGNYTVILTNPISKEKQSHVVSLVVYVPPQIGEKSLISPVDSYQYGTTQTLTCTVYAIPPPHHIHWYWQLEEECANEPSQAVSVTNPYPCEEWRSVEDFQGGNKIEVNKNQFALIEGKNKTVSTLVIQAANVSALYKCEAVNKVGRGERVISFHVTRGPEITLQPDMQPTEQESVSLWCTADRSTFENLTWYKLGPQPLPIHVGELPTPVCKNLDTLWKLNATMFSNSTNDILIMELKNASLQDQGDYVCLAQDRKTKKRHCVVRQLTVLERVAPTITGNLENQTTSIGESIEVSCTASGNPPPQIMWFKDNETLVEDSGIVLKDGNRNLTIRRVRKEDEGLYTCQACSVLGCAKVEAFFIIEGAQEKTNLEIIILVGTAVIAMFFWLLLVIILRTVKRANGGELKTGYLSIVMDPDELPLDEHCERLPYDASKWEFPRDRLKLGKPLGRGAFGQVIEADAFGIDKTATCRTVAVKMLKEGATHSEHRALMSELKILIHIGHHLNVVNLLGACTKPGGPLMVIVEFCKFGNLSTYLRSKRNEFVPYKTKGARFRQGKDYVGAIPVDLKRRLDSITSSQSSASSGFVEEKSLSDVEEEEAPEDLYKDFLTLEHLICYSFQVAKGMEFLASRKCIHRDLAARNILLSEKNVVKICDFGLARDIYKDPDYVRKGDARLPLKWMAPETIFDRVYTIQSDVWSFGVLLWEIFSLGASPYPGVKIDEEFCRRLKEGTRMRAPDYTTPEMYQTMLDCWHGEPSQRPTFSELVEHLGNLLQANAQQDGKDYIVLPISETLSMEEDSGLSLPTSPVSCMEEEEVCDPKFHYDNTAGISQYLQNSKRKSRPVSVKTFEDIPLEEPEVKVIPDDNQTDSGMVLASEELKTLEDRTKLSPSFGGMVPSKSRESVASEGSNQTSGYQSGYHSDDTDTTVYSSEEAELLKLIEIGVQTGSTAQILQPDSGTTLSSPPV
How it was run: as §1

c-Met = molecular target: T7, c-Met (Homo sapiens, UniProt P08581); test: Kinase inhibition assay (33P transfer), c-Met; conditions: Table 2, kinase inhibition class; read-out: Met-1
T7 construct: Kinases are expressed as either kinase domains or full length constructs; made in house
T7 sequence (P08581 25-1390): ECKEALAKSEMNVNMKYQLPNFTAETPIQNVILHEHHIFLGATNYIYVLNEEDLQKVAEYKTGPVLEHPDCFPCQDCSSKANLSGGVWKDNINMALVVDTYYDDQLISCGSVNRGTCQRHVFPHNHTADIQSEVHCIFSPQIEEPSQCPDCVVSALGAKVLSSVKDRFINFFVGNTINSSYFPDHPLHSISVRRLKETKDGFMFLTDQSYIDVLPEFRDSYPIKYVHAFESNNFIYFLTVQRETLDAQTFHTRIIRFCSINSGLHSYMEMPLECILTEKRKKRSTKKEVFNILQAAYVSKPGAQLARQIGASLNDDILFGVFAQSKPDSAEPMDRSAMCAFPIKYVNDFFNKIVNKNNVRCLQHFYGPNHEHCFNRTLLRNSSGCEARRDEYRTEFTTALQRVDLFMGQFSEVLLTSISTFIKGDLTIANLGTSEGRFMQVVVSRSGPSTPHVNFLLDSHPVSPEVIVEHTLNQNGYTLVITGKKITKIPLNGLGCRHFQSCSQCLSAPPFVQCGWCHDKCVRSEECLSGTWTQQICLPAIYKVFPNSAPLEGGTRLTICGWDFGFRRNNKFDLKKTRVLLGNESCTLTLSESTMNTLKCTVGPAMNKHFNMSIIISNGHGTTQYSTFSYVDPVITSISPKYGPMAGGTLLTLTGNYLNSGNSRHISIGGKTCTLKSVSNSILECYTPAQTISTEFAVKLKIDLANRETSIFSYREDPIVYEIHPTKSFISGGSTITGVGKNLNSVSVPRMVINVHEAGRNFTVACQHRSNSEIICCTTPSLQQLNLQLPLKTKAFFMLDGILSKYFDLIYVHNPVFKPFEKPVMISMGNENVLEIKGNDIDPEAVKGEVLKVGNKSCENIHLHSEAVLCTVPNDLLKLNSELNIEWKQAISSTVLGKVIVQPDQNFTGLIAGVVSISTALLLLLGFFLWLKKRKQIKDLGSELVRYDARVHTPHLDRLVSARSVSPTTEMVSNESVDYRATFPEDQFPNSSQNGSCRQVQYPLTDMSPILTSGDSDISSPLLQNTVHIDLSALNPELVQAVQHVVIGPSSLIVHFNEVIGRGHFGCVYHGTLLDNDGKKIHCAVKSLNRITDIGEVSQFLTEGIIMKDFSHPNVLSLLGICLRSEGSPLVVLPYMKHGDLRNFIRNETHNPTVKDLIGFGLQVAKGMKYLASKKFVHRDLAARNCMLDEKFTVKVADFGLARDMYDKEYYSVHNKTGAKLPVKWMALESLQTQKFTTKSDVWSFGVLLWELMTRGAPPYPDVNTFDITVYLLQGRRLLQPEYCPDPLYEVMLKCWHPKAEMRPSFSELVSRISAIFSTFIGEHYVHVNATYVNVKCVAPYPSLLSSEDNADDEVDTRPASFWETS
How it was run: as §2

AKT = molecular target: T8, AKT (Homo sapiens, UniProt Q9Y243); test: Kinase inhibition assay (33P transfer), AKT; conditions: Table 2, kinase inhibition class; read-out: AKT3-1
T8 construct: Kinases are expressed as either kinase domains or full length constructs; made in house
How it was run: as §1

IGFR-1 = molecular target: T9, IGFR-1 (Homo sapiens, UniProt P08069); test: Kinase inhibition assay, IGFR-1 (Table 2); conditions: Table 2, kinase inhibition class
T9 construct: Kinases are expressed as either kinase domains or full length constructs; made in house

PDGFRB = molecular target: T10, PDGFRB (Homo sapiens, UniProt P09619); test: Kinase inhibition assay (33P transfer), PDGFRB; conditions: read-out: PDGFRB-1
T10 construct: Kinases are expressed as either kinase domains or full length constructs; made in house

pIC50 (Lck) | pIC50 (Zap-70) | pIC50 (Itk) | pIC50 (EGFR) | pIC50 (ErbB2) | pIC50 (Kdr) | pIC50 (c-Met) | pIC50 (AKT) | pIC50 (IGFR-1) | pIC50 (PDGFRB) | Structure (SMILES)
5.20 to 5.98 | < 4.93 | < 4.93 | 5.20 to 5.98 | < 4.93 | 5.04 to 5.20 | < 4.93 | < 4.93 | 5.20 to 5.98 | 5.20 to 5.98 | COc1cc(Nc2ncnc(NCCc3ccccc3)n2)cc(OC)c1OC [Compound 628]
< 4.96 | 5.07 to 5.23 | 4.96 to 5.07 | > 6.01 | 5.23 to 6.01 | 5.23 to 6.01 | 5.23 to 6.01 | 5.07 to 5.23 | 4.96 to 5.07 | 5.23 to 6.01 | Cc1cccc(Nc2ncnc(Nc3ccc4c(cnn4Cc4ccccc4)c3)n2)c1 [Compound 553]
4.97 to 5.08 | 5.24 to 6.02 | 4.97 to 5.08 | > 6.02 | 5.24 to 6.02 | 5.24 to 6.02 | 4.97 to 5.08 | 4.97 to 5.08 | 5.08 to 5.24 | 4.97 to 5.08 | Brc1cccc(Nc2ncnc(Nc3cccc(Br)c3)n2)c1 [Compound 539]
> 6.00 | < 4.94 | 4.94 to 5.05 | > 6.00 | 5.22 to 6.00 | > 6.00 | 5.22 to 6.00 | < 4.94 | 5.22 to 6.00 | 5.22 to 6.00 | CCN(c1cccc(C)c1)c1ncnc(Nc2cc(OC)c(OC)c(OC)c2)n1 [Compound 537]
< 4.90 | < 4.90 | < 4.90 | 5.18 to 5.95 | < 4.90 | < 4.90 | < 4.90 | < 4.90 | < 4.90 | < 4.90 | CN(c1cccc(Cl)c1)c1ncnc(N(C)c2cccc(Cl)c2)n1 [Compound 702]
5.19 to 5.97 | < 4.92 | < 4.92 | > 5.97 | > 5.97 | 5.19 to 5.97 | 5.19 to 5.97 | < 4.92 | 5.03 to 5.19 | 5.19 to 5.97 | COc1ccc(Nc2ncnc(N(C)c3cccc(Cl)c3)n2)cc1OC [Compound 621]
< 4.75 | < 4.75 | < 4.75 | < 4.75 | < 4.75 | < 4.75 | < 4.75 | < 4.75 | < 4.75 | < 4.75 | CN(c1cccc(Cl)c1)c1ncnc(Cl)n1 [Compound 701, N-methyl-2-chloro-4(3-chloroanilino)-1,3,5-triazine]
5.30 to 6.07 | < 5.02 | 5.30 to 6.07 | < 5.02 | < 5.02 | 5.13 to 5.30 | < 5.02 | < 5.02 | 5.30 to 6.07 | 5.30 to 6.07 | COc1cc(Nc2ncnc(-n3c(NCc4ncc[nH]4)nc4ccccc43)n2)cc(OC)c1OC [Compound 583]
5.17 to 5.95 | 5.17 to 5.95 | 5.17 to 5.95 | > 5.95 | 5.17 to 5.95 | 5.17 to 5.95 | 5.17 to 5.95 | < 4.90 | 5.17 to 5.95 | > 5.95 | Fc1ccc(Nc2ncnc(Nc3ccc4[nH]ncc4c3)n2)cc1Cl [Compound 717]
5.02 to 5.18 | < 4.91 | < 4.91 | 4.91 to 5.02 | < 4.91 | < 4.91 | < 4.91 | < 4.91 | < 4.91 | 4.91 to 5.02 | COc1ccc(Nc2ncnc(NCC(O)c3ccccc3)n2)cc1OC (centres unmarked) [Compound 780]
> 6.09 | < 5.04 | < 5.04 | > 6.09 | 5.31 to 6.09 | 5.31 to 6.09 | 5.15 to 5.31 | < 5.04 | 5.31 to 6.09 | 5.31 to 6.09 | COc1cc(Nc2ncnc(NC3CC3c3ccccc3)n2)cc(OC)c1OCCN1CCOCC1 (centres unmarked) [Compound 563]
5.18 to 5.95 | < 4.90 | 5.18 to 5.95 | 5.18 to 5.95 | 5.18 to 5.95 | 5.18 to 5.95 | 5.18 to 5.95 | 5.18 to 5.95 | > 5.95 | 5.18 to 5.95 | COc1cccc(Nc2ncnc(Nc3cc(-c4ccccc4)n[nH]3)n2)c1 [Compound 1011]
< 4.91 | < 4.91 | < 4.91 | 5.02 to 5.18 | 5.02 to 5.18 | 5.02 to 5.18 | 5.18 to 5.96 | 5.18 to 5.96 | < 4.91 | < 4.91 | Cc1ccc2c(c1)CCCN2c1ncnc(Nc2cccc(Cl)c2C)n1 [Compound 778]
> 6.08 | 5.03 to 5.14 | 5.03 to 5.14 | > 6.08 | 5.30 to 6.08 | 5.30 to 6.08 | 5.14 to 5.30 | 5.14 to 5.30 | > 6.08 | 5.30 to 6.08 | COc1cc(Nc2ncnc(Nc3ccc4nn(Cc5ccccc5)cc4c3)n2)cc(OC)c1OC [Compound 555]
< 4.87 | < 4.87 | < 4.87 | < 4.87 | < 4.87 | < 4.87 | < 4.87 | < 4.87 | < 4.87 | < 4.87 | COc1ccc(Nc2ncnc(NCCNC(C)=O)n2)cc1OC [Compound 784]
< 4.89 | < 4.89 | < 4.89 | 5.00 to 5.16 | < 4.89 | < 4.89 | < 4.89 | < 4.89 | < 4.89 | < 4.89 | CN(c1cccc(Cl)c1)c1ncnc(NCCN2CCCCC2)n1 [Compound 740]
< 5.11 | < 5.11 | < 5.11 | < 5.11 | 5.22 to 5.38 | 5.38 to 6.16 | < 5.11 | < 5.11 | < 5.11 | 5.22 to 5.38 | COc1cc(Br)ccc1Nc1nc2ccccc2n1-c1ncnc(Nc2cc(OC)c(OC)c(OC)c2)n1 [Compound 1052]
> 6.02 | < 4.97 | < 4.97 | 5.25 to 6.02 | 5.25 to 6.02 | > 6.02 | > 6.02 | < 4.97 | 5.25 to 6.02 | > 6.02 | COc1ccc2c(c1)CCCN2c1ncnc(Nc2cc(OC)c(OC)c(OC)c2)n1 [Compound 631]
< 4.86 | < 4.86 | < 4.86 | < 4.86 | < 4.86 | < 4.86 | < 4.86 | < 4.86 | < 4.86 | < 4.86 | CCOC(=O)CNc1ncnc(N2CCCc3cc(C)ccc32)n1 [Compound 761]
< 4.96 | 5.07 to 5.24 | < 4.96 | < 4.96 | < 4.96 | 4.96 to 5.07 | 4.96 to 5.07 | < 4.96 | < 4.96 | < 4.96 | c1ccc(Cn2ncc3cc(Nc4ncnc(NCC5CCCCC5)n4)ccc32)cc1 [Compound 727]
